Values joined by “and” are separate entries in the source; they are usually repeats but may differ in a detail not shown here. Equal values may be shown once. Read-outs that look alike come from different tables or passages of the source.
Columns and labels:
[1] = Metabolic stability / metabolite detection in rat liver microsomes
Experimental: (§1) Pooled male and female human and rat liver microsomes were obtained commercially from BD Bioscience (San Jose, CA) and Xenotech (Lenexa, KS), respectively. […] Reactions were started by the addition of microsomes and stopped by removing 100 μL aliquots at each time point. […] As positive control, 10μM midazolam was incubated with microsomes for 0, 15, 30 and 60 min in a 37°C water bath and with heat-inactivated microsomes for 0 and 60 min. […] All assays were done in duplicates.
(§2) Reactions were stopped by removing 150 μL aliquots at 0, 5, 15, and 30 min and mixing with acetonitrile containing hexyl nicotinate as internal standard. […] Samples were analyzed in full-scan mode with MS/MS product-ion spectra generated for detected metabolite masses. This was performed using the EMS (enhanced MS scan) mode of the mass spectrometer with IDA (independent data acquisition) experiments to produce MS/MS product-ion spectra for masses detected at sufficient intensities. […] All assays were done in duplicate.

[2] = Plasma and brain 4R concentrations and pharmacokinetics in male rats; format: in vivo, Sprague-Dawley rat; details: for Kp at 1.5 h: brain and plasma, 90 min after dose, read-out: Ratio Cmax brain/ plasma; for Kp at 1.5 h / Cmax / Tmax / half-life: 6 mg/kg; for bioavailability: read-out: F (bioavailability)
Experimental: Twelve-week old male Sprague-Dawley rats weighing 307–373 g at the time of the experiment were used. […] The dosing volume of injection was 0.5 mL/kg for the i.m. and s.c. routes and 5 mL/kg for the i.v. route. […] Animal procedure for housing and care was performed according to the National Research Council (NRC) Guide for the Care and Use of Laboratory Animals and the Animal Welfare Standards incorporated in 9 Code of Federal Regulations Part 3, 1991. The animals had 12 hr light/dark cycles and at least 10 room volumes per hour with no recirculation of air. Purina certified rodent chow and water was provided ad libitum.
Blood samples were collected via a jugular vein catheter at each of the following time points: 2, 5, 10, 20, 45, 60, 90 min and 2, 4, 8 hr. […] The samples were vortexed, centrifuged and the supernatants removed. The supernatants were evaporated to dryness and reconstituted in a solvent mixture containing 50/50/0.1 acetronile/water/formic acid (v/v/v) with 10ng/mL hexyl nicotinate as internal standard. […] Rat brains were collected at 10, 60 or 90 min, and 8 hr post dose and frozen at -70°C. On the day of the analysis, the brains were homogenized in PBS using 4 parts phosphate buffer and 1 part brain (g/g). […] The lower limit of quantitation of the LC-MS/MS was 20.0 ng/ml for plasma and 100 ng/g for brain.
Parameters were calculated for each individual animal. The peak concentration in plasma (Cmax) and the corresponding time of maximum concentration (Tmax) were determined directly from the data. The area under the plasma concentration-time curve (AUC) from time 0–8 hr was calculated using the log/linear trapezoidal (i.v. route) or linear up/log down trapezoidal (i.m. and s.c routes) methods. The dose administered was input to the program as mg/kg, and as a result no additional corrections for individual body weights of the animals were necessary. The following parameters and constants were determined for the three groups: observed maximum plasma concentration (Cmax), time to maximum plasma concentration (Tmax), area under the plasma concentration-time curve to the last time point (AUClast), area under the plasma concentration-time curve extrapolated to infinity (AUCinf), terminal phase elimination half-life (t1/2). Bioavailability (F) after i.m. and s.c. administration was calculated using their respective AUCinf values divided by the AUCinf value of the i.v. group.

[3] = 4R plasma stability in human plasma; format: in vitro ADME; details: 10 μM 4R, 0-60 min at 37°C
Experimental: The samples were centrifuged at 18,000 x g for 10 min and the supernatants (100–250 μL) transferred to an HPLC vial containing 900 μl of 60% acetonitrile. The LC-MS/MS analysis was carried out using a high-performance liquid chromatography system consisting of a Shimadzu LC-20AD pump, (Shimadzu Scientific Instruments, Columbia, MA), and a CTC analytics PAL autosampler operating at 10°C (Leap technologies, Carrboro, NC). The MS instrument used was a 4000 QTrap triple quadrupole tandem mass spectrometer (Applied Biosystems/MDS Sciex, Foster City, CA). Electrospray ionization in positive ion mode (ESI+) was used. […] All samples were assayed in duplicate.

[4] = Metabolic stability / metabolite detection in human liver microsomes
Experimental: as §1, §2

[5] = 4R plasma stability in rat plasma; format: in vitro ADME; details: 10 μM 4R
Experimental: The samples were centrifuged at 18,000 x g for 10 min and the supernatants (100–250 μL) transferred to an HPLC vial containing 900 μl of 60% acetonitrile. The LC-MS/MS analysis was carried out using a high-performance liquid chromatography system consisting of a Shimadzu LC-20AD pump, (Shimadzu Scientific Instruments, Columbia, MA), and a CTC analytics PAL autosampler operating at 10°C (Leap technologies, Carrboro, NC). The MS instrument used was a 4000 QTrap triple quadrupole tandem mass spectrometer (Applied Biosystems/MDS Sciex, Foster City, CA). Electrospray ionization in positive ion mode (ESI+) was used. The detection of 4R was performed using the multiple reaction monitoring (MRM) mode. […] All samples were assayed in duplicate.

[6] = Solubility of 4R in dosing vehicle; format: physicochemical; details: 12 mg/mL in 10% DMSO and 90% PEG400, room temperature
Experimental: The solution was sterile filtered using a Millipore Millex-GS 0.22 μm syringe filter. Dose formulations were prepared on Day 1 prior to dose administration and were maintained at room temperature until administration to the animals.

[7] = 10 μM, 5 min, metabolite detection experiment
[8] = 10 μM, 15 min, metabolite detection experiment
[9] = 50 μM, 30 min, metabolite detection experiment
[10] = both, rat, liver microsomes, pH 7.4
[11] = male, Sprague-Dawley, rat, plasma, im, 6 mg/kg i.m.
[12] = male, Sprague-Dawley, rat, plasma, iv, 6 mg/kg i.v.
[13] = male, Sprague-Dawley, rat, plasma, sc, 6 mg/kg s.c.
[14] = both, human, liver microsomes, pH 7.4
[15] = 10 μM, heat-inactivated microsomes, 60 min

## C/C1=C\[C@H](O)C[C@@](C)(O)/C=C/C(C(C)C)CC/C(C)=C/CC1 (stereo partly drawn) [4R, (1S, 2E, 4R, 6R, 7E, 11E)-cembra-2,7,11-triene-4,6-diol]
[1]; [7]
  percent 4R remaining: 34%
[1]; [8]
  percent 4R remaining: less than 2%
[1]; [9]
  mean percent 4R remaining: ≤ 7.3%
[1]; [10]
  remaining at 5 min, 1 μM: 19%
  remaining at 5 min, 10 μM: 29%
  remaining at 0.25 h, 1 μM: 4%
  remaining at 0.25 h, 10 μM: < 2%
[2]; 6 mg/kg i.m.
  Brain Cmax: 329 ng/g and 329 ± 50 ng/g
  time to maximum brain level: 90 min
[2]; 6 mg/kg i.m., by 8 hr post dose
  plasma 4R level: below the LLOQ
[2]; 6 mg/kg i.v.
  brain Cmax, times higher than s.c. or i.m.: 20 times
[2]; 6 mg/kg i.v., at 10 min
  Brain Cmax: 6516 ng/g and 6516 ± 1091 ng/g
[2]; 6 mg/kg i.v., post dose
  time to reach the brain: ≤ 10 min
[2]; 6 mg/kg s.c.
  Brain Cmax: 323 ng/g and 323 ± 90 ng/g
  time to maximum brain level: 90 min
[2]; 6 mg/kg s.c. or i.m.
  Brain Cmax: 300 to 400 ng/mL
[2]; 6 mg/kg s.c., at 90 min
  maximum mean 4R brain level: 323 ± 90
[2]; 6 mg/kg s.c., by 8 hr post dose
  plasma 4R level: below the LLOQ
[2]; male, Sprague-Dawley, rat, im, 6 mg/kg i.m.
  Kp at 1.5 h: 2.49
[2]; male, Sprague-Dawley, rat, sc, 6 mg/kg s.c.
  Kp at 1.5 h: 2.48
[2]; male, Sprague-Dawley, rat, brain, intravenous, 6 mg/kg i.v., at 1 hr post dose
  concentration at 1 hr: 3000 ± 771 ng/g
[2]; male, Sprague-Dawley, rat, im, 6 mg/kg i.m., plasma
  AUC(0-inf): 395 ± 138 ng·h/mL
[2]; male, Sprague-Dawley, rat, iv, 6 mg/kg i.v., plasma
  AUC(0-inf): 1140 ± 224 ng·h/mL
[2]; [11]
  Cmax: 163 ng/mL
  Tmax: ~1 h
[2]; male, Sprague-Dawley, rat, plasma, im, 6 mg/kg i.m., male rats, read-out: t1/2 (converted)
  half-life: ~1.5 h
[2]; male, Sprague-Dawley, rat, plasma, intramuscular, 6 mg/kg i.m., AUCinf relative to i.v.
  bioavailability: 35%
[2]; male, Sprague-Dawley, rat, plasma, intramuscular, 6 mg/kg i.m., at 1 hr
  concentration at 1 hr: 157 ± 86 ng/mL
[2]; male, Sprague-Dawley, rat, plasma, intravenous, 6 mg/kg i.v., at 5 min
  concentration at 5 min: 975 ± 104 ng/mL
[2]; male, Sprague-Dawley, rat, plasma, intravenous, 6 mg/kg i.v., by 8 hr post dose
  concentration at 8 hr: < 20 ng/mL
[2]; [12]
  Cmax: 1020 ± 49 ng/mL
  bioavailability: 100%
[2]; male, Sprague-Dawley, rat, plasma, iv, 6 mg/kg i.v., male rats, read-out: t1/2 (converted)
  half-life: 0.6 ± 0.1 h
[2]; male, Sprague-Dawley, rat, plasma, iv, 6 mg/kg i.v., read-out: elimination t1/2
  half-life: 0.6 h
[2]; [13]
  Cmax: 138 ± 28 ng/mL
  Tmax: 1 h
[2]; male, Sprague-Dawley, rat, plasma, sc, 6 mg/kg s.c., male rats, read-out: t1/2 (converted)
  half-life: ~1.5 h
[2]; male, Sprague-Dawley, rat, plasma, subcutaneous, 6 mg/kg s.c., AUCinf relative to i.v.
  bioavailability: 41%
[2]; male, Sprague-Dawley, rat, plasma, subcutaneous, 6 mg/kg s.c., at 1 hr
  concentration at 1 hr: 134 ± 34 ng/mL
[2]; male, Sprague-Dawley, rat, sc, 6 mg/kg s.c., plasma
  AUC(0-inf): 466 ± 56 ng·h/mL
[3]
  mean percent 4R content versus control: 96–103%
[4]; [7]
  percent 4R remaining: 18%
[4]; [8]
  percent 4R remaining: less than 2%
[4]; [9]
  mean percent 4R remaining: ≤ 7.3%
[4]; [14]
  remaining at 5 min, 1 μM: 8%
  remaining at 5 min, 10 μM: 15%
  remaining at 0.25 h, 1 μM: 4%
  remaining at 0.25 h, 10 μM: < 2%
[5]; 0-60 min at 37°C
  mean percent 4R content versus control: 97–101%
[5]; 60 min at room temperature
  mean percent 4R content: 96%
[6]
  appearance of 4R formulation (solubility): clear colorless solution

## Cc1ncc2n1-c1ccc(Cl)cc1C(c1ccccc1F)=NC2 [MDZ, Midazolam, reference compound]
[1]; [15]
  percent remaining with heat-inactivated microsomes: 108%
[4]; [15]
  percent remaining with heat-inactivated microsomes: 89%

From publication PMC4374761, “Pharmacokinetics and Metabolism of 4R-Cembranoid” (PLoS ONE, 2015)
